This assay concerns EV71 clinical isolate (EV71 FY 573). As to the kind of experiment: EV71 TCID50 (CPE, crystal violet) in RD cells. Format: cell-based, Enterovirus 71. On the procedure:
EV71 (clinical isolate EV71 FY 573) in 10-fold serial dilutions was used to infect RD cells at different E02 concentrations. After 3-4 days of incubation, CPE (cytopathic effect) was observed under optical microscope and stained with crystal violet to calculate 50% tissue culture infective dose. Procedures are detailed as follows:
(1) Cell seeding: 24 h prior to infection, RD cells were seeded in 96-well cell culture plates, 5×10^4 cells per well.
(2) Infection: • a. Virus pre-incubated with drug: virus stock solution was in 10-fold serial dilution with DMEM and dispensed to 96-well plates at 100 μl per well, and 11 μl of E02 dissolved in DMEM at corresponding concentration was added, and incubated at 37° C. for 1 h; • b. Cells pre-incubated with drug: cell culture medium was removed from 96-well plates, each well was added 100 μl DMEM, then added 11 μl of E02 solution at corresponding concentration, and incubated at 37° C. for 1 h; • c. After 1 h incubation, drug was discarded from cell culture plates, 111 μl of virus pre-incubated with drug was transferred to cell culture plates, and incubated at 37° C. for 1 h; • d. […]
(3) After cultured for 3-4 days, CPE was observed under optical microscope, and stained with crystal violet, TCID50 was calculated using Reed-Muench method.

For the compound `Cc1ccc(C(=O)Nc2ccc(S(=O)(=O)O)c3cc(S(=O)(=O)O)cc(S(=O)(=O)O)c23)cc1NC(=O)c1cccc(NC(=O)Nc2cccc(C(=O)Nc3cc(C(=O)Nc4ccc(S(=O)(=O)O)c5cc(S(=O)(=O)O)cc(S(=O)(=O)O)c45)ccc3C)c2)c1` [E02, Suramin Sodium], the “inhibition of EV71 clinical isolate infection of RD cells” value (10 μM of E02) is reported as “completely inhibit”. Also, the concentration for a half-maximal effect (EC50) (commonly the concentration giving half of the maximal effect) (Enterovirus A, RD, EV71 FY 573, 3-4 days, read-out: EC50 to reduce EV71 TCID50 in RD cells) worked out at 4.7 µM.
